One may read the IC50 as the midpoint of a concentration-inhibition curve.

For assay [1], the target named is T1, Human recombinant monoamine oxidase MAO-B (Homo sapiens, UniProt P27338).
T1 construct: purchased Sigma Aldrich
T1 sequence (P27338 1-520): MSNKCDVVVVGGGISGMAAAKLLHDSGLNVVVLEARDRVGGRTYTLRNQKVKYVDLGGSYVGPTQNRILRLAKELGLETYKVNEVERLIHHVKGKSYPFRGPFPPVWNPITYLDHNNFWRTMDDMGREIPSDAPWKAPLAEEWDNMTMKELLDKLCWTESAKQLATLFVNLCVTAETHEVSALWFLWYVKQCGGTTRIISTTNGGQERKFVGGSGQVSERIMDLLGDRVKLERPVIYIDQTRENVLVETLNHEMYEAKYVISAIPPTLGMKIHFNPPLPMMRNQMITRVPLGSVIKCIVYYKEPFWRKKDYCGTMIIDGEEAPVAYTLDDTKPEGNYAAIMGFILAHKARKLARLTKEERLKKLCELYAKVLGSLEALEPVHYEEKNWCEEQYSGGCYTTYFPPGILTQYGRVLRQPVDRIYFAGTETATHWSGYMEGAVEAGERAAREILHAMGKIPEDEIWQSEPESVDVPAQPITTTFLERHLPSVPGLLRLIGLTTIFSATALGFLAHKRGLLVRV
Description: MAO-B fluorescence-based kynuramine assay. It counts as biochemical. The source says: MAOs catalyze the oxidative deamination of primary, secondary and tertiary amines. In order to monitor MAO enzymatic activities and/or their inhibition rate by inhibitor(s) of interest, a fluorescence-based (inhibitor)-screening assay was set up. 3-(2-Aminophenyl)-3-oxopropanamine (kynuramine dihydrobromide, Sigma Aldrich), a non fluorescent compound was chosen as a substrate. Kynuramine is a non-specific substrate for both MAO-A and MAO-B activities. While undergoing oxidative deamination by MAO activities, kynuramine is converted into 4-hydroxyquinoline (4-HQ), a resulting fluorescent product.
The monoamine oxidase activity was estimated by measuring the conversion of kynuramine into 4-hydroxyquinoline. Assays were conducted in 96-well black plates with clear bottom (Corning) in a final volume of 100 μL. […]
After leaving the enzyme(s) interacting with the inhibitor, KM of kynuramine was added to each reaction for MAO-B and MAO-A assay respectively, and the reaction was left for 1 hour at 37° C. in the dark. […] The conversion of kynuramine to 4-hydroxyquinoline, was monitored by fluorescence (excitation at 320 nm, emission at 360 nm) using a microplate reader (Infinite 200, Tecan). Arbitrary units were used to measure levels of fluorescence produced in the absence and/or in the presence of inhibitor.
The IC50 values of each inhibitor were calculated with GraphPad Prism Software.

The subject of the next assay is S100A8. Nature of the assay: Microarray gene expression, brain of Hsd:ICR (CD1) mice, MTD study (Example 6). Particulars: brain day 5, male CD1 mice pool. Format: in vivo, mouse. The protocol: Total RNA was extracted from samples using the RNeasy extraction kit (Qiagen). The quality and concentration of the RNA was analyzed using the Agilent 2100 bioanalyzer and NanoDrop™ ND-1000 (Thermo Scientific). Samples with RNA integrity number (RIN)<6.0 were discarded. Total RNA (0.5 μg) amplification and labelling with Cy3 or Cy5 was carried out using the Eberwein mRNA amplification procedure (Van Gelder et al, Proc Natl Acad Sci USA 1990, 87:1663-1667) employing the MessageAmp™ aRNA amplification kit from Ambion (Applied Biosystems) following the manufacturer's instructions with minor modifications. As hybridization controls, plant mRNAs were transcribed from a plasmid containing the Zea mays Xet (xyloglucan endo-transglycosylase) cDNA and from a plasmid containing the Zea mays Zmmyb42 cDNA, independently prepared Cy3 and Cy5 labelled aRNA from these two RNAs using the Eberwein mRNA amplification procedure (as disclosed in Cerdà et al, Gen Comp Endocrinol 2008, 156:470-481).
The Cy3- and Cy5-labelled cRNAs and spikes were combined and hybridized to the microarray described in Example 2.6 for 17 h at 60° C. using Agilent's gaskets G2534-60002, G2534A hybridization chambers and DNA Hybridization Oven G2545A, according to the manufacturer's instructions. More specifically, equal amounts of Cy3 and Cy5 labeled Xet aRNA as well as equal amounts of Cy3 and Cy5 labeled Zmmyb42 aRNA were spiked into each mixture hybridized to the array. Arrays were washed and raw data were obtained using Agilent's DNA Microarray Scanner G2505B and Feature Extraction software (v10.1). The raw fluorescence intensity data were processed using applicant's proprietary software, and consists in the following operations:
Data normalization was carried out by an improved version of the nonlinear Q-splines normalization method (Workman et al., Genome Biol 2002, 3(9):research0048.1-0048.16). Normalization results were presented graphically as MA plots, as first described by Dudoit et al (Dudoit et al, Statistica Sinica, 2002, 12:111-139). Each point corresponds to a probe of the DNA array. M values (vertical axis) are the log-differential expression ratios. A values (horizontal axis) are the log-intensities of the spots. M and A are calculated from the Cy5 and Cy3 intensity values as of each spot. The DNA Array data is normalized using an improved version of non-linear Q-Splines normalization described by Workman et al., Genome Biol 2002, 3(9):research0048.1-0048.16. This process is useful to correct the deviation of the M values from the statistical assumption that most of the spots have M=0 in MA plots. […]. The data used to calculate the normalization fitting curve is the totality of the raw measurement dataset, excluding the signals for the probes for the spiked-in plant RNA controls and negative controls. In order to be able to normalize properly the data among all the experiments, the probe-set must include an important group of genes that should have no change (M=0) in the experiment. The normalization function is then applied to all the data, including controls.
Normalized and log-transformed data were used to calculate log 2 (sample/control) and Fold Change (FC) values. No background subtraction was applied to the signal intensity values during data processing, permitting robust selection of differentially expressed genes with low expression levels at the cost of potential sub-estimation of change when intensity levels are close to the array background level.
Male Hsd:ICR (CD1®) mice were maintained in air- and temperature-controlled cages with regular supply of water and food. A maximum of 3 mice were raised per cage. Three mice were assigned to each group. Before the first administration, each mouse was labeled and weighed. Test compounds were administered orally using 1 ml syringes using animal feeding needles proper for mice at 10 ml/kg as follows. […]

The mark [2] stands for this setting: 3 mg/kg oral x5 days vs vehicle.
The mark [3] stands for this setting: 10 mg/kg oral x5 days vs vehicle.
Where [4] appears, read: 30 mg/kg oral x5 days vs vehicle.
Setting [5] is: 100 mg/kg oral x5 days vs vehicle.

Consider `NC(=O)CN[C@H]1C[C@@H]1c1ccc(OCc2ccccc2)cc1` (racemic) [Compound 3, 2-(((trans)-2-(4-(benzyloxy)phenyl)cyclopropyl)amino)acetamide], for which the 50% inhibitory concentration (IC50) in assay [1] is 0.07 µM.
Take `N[C@H]1CCN(CCN[C@H]2C[C@@H]2c2ccc(-c3cccc(C(F)(F)F)c3)cc2)C1` (racemic) [Compound 5, (S)-1-(2-(((trans)-2-(3′-(trifluoromethyl)-[1,1′-biphenyl]-4-yl)cyclopropyl)amino)ethyl)pyrrolidin-3-amine]: the IC50 in assay [1] was determined as 5.1 µM.
For “(+) 5-((((trans)-2-(4-(benzyloxy)phenyl)cyclopropyl)amino)methyl)-1,3,4-oxadiazol-2-amine [Compound 2]”, the “Hybridization signal sample_Cy5 S100A8” value in the assay on S100A8 (3 mg/kg oral x5 days) is recorded as 126.363; with S100A8 (10 mg/kg oral x5 days), 69.9912; in the assay with S100A8 (30 mg/kg oral x5 days), 80.188; with S100A8 (100 mg/kg oral x5 days), 39.3591. Moreover, the “log2 (sample/control) S100A8” value with S100A8 (setting [2]) is given as −0.1015; in the assay with S100A8 (setting [3]), −1.156; with S100A8 (setting [4]), −1.029; with S100A8 (setting [5]), −1.921.
Consider “(−) 5-((((trans)-2-(4-(benzyloxy)phenyl)cyclopropyl)amino)methyl)-1,3,4-oxadiazol-2-amine [Compound 1]”, for which the “Hybridization signal sample_Cy5 S100A8” value in the assay on S100A8 (3 mg/kg oral x5 days) is given as 55.2994; in the assay on S100A8 (10 mg/kg oral x5 days), 39.6385; with S100A8 (30 mg/kg oral x5 days), 40.5977; in the assay with S100A8 (100 mg/kg oral x5 days), 40.4596. For the same compound, the “log2 (sample/control) S100A8” value was −1.452 in the assay on S100A8 (setting [2]), −1.81 in the assay with S100A8 (setting [3]), −1.859 with S100A8 (setting [4]) and −1.786 in the assay on S100A8 (setting [5]).

The record behind these values is patent US20180284095A1, “BIOMARKERS ASSOCIATED WITH LSD1 INHIBITORS AND USES THEREOF” (Oryzon Genomics, S.A., priority 2015, published 2018).
